Measured values reported in patent USRE38604E1, “Fluid therapy with L-lactate and/or pyruvate anions” (BTG International Limited, priority 1984, dated 2004).

How the values were obtained:
[1] = patient undergoing continuous cyclic peritoneal dialysis; severe recurrent metabolic alkalemia secondary to it; cited from earlier work
brain tissue = conditions: rat, aqueous 20 mM/l, parenteral

Compound: CC(O)C(=O)O (racemic) [d,l-lactate]
- adverse effect of inclusion in routine dialysis fluids [1]: encephalopathy

Compound: C[C@@H](O)C(=O)O [d-lactate]
- effect on brain tissue (brain tissue): swelling of brain tissue is observed
- outcome with continued administration (coma, cerebral edema, death) (brain tissue): coma develops, the cerebral edema worsens and death ensues

Compound: C[C@H](O)C(=O)O [l-lactate]
- outcome with continued administration (coma, cerebral edema, death) (brain tissue): does not cause coma or death
